Experiments:
[1] = target: T1, Inactive N-terminal His6 tagged murine P38 (Mus musculus, UniProt P47811); assay: p38 cascade assay (HTRF; inactive p38 activated by MKK-6, ATF-2 phosphorylation); format: biochemical; conditions: inactive p38 preincubated with compound, then MKK-6, ATF-2, ATP; read-out: 50% inhibition in the p38 cascade assay at concentrations within the range
T1 construct: His6 (N); made in house
Description: The homogeneous time resolved fluorescence method (HTRF) assay measured the phosphorylation of human activating transcription factor (ATF)-2 protein by P38 following activation by MKK-6 and was run in A384 well plate format. […] MBP-tagged mouse MKK-6 (final concentration 50 nM), GST-tagged ATF-2 (fmal concentration 200 nM) and ATP (final concentration 50 μM) were then added and the incubation continued for 90 min. p38, MKK-6 and ATF-2 were prepared in the Protein Production Group, Aventis Pharmaceuticals. XL665 labeled anti-GST antibody (Cis Bio International) and cryptate labeled anti-pbospho-ATF2 antibody (Cis Bio International) were then added to generate the specific signal proportional to the phosphorylation of the substrate. The close proximity of XL665 labeled anti-GST antibody/phosphorylated GST-ATF2 complex and the cryptate labeled anti-phospho-ATF2 antibody results in a fluorescence transfer from cryptate to XL665. The resulting fluorescence signal was than read on a LJL Acquest set at multi-method mode using a fluorescence filter set (E=360 nm, Em=615/665 nm) with UV dichroic mirror (Integration time: 300000 μs). The results are reported as IC50 values. Compounds were tested over the concentration range of 3×10^−10M to 3×10^−5M.

[2] = tested on: TNF-alpha release in THP-1 cells; assay: LPS-induced TNF-alpha release in THP-1 cells; format: cell-based; conditions: Homo sapiens, THP-1, LPS-stimulated THP-1 cells; read-out: 50% inhibition in the LPS-induced TNF-alpha release in THP-1 cells assay at concentrations within the range
Outline: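 TNF-alpha in supernatants was quantified by sandwich ELISA against a log/log recombinant standard curve (0.125-16 ng/ml). Before this, THP-1 cells (1×10^6 cells/ml, serum-reduced) received compound at 1×10^−9 to 1×10^−6 M in 0.3% DMSO for 1 h, then LPS 20 μg/ml for 18 h.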

T1 sequence (P47811 whole entry): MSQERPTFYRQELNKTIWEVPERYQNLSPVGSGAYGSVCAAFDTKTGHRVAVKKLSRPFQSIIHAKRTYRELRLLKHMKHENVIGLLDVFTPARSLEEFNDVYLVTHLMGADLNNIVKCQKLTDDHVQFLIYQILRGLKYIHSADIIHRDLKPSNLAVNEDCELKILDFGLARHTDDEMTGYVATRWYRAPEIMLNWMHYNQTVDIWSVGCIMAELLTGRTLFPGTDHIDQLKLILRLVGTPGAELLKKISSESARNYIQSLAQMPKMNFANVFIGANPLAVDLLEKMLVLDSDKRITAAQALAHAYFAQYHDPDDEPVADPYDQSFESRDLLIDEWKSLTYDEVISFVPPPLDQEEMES

SMILES	IC50 [1] [nM]	IC50 [2] [nM]
COC(=O)CCC(=O)N1CCC(Cc2cccc(NC(=O)Nc3cc(C(C)(C)C)nn3-c3ccc(C)cc3)c2)CC1 [Compound A174, 4-(4-{3-[3-(5-tert-Butyl-2-p-tolyl-2H-pyrazol-3-yl)-ureido]-benzyl}-piperidin-1-yl)-4-oxo-butyric acid methyl ester]	10 to 100	–
Cc1ccc(-n2nc(C(C)(C)C)cc2NC(=O)Nc2ccc(CC3CCN(C(=O)c4ccc(O)nc4)CC3)cc2)cc1 [Compound A333, 1-(5-tert-Butyl-2-p-tolyl-2H-pyrazol-3-yl)-3-{4-[1-(6-hydroxy-pyridine-3-carbonyl)-piperidin-4-ylmethyl]-phenyl}-urea]	10 to 100	–
CC(=O)c1ccc(NC(=O)N2CCC(Cc3cccc(NC(=O)Nc4cc(C(C)(C)C)nn4-c4ccc(C)cc4)c3)CC2)cc1 [Compound A403, 4-{3-[3-(5-tert-Butyl-2-p-tolyl-2H-pyrazol-3-yl)-ureido]-benzyl}-piperidine-1-carboxylic acid (4-acetyl-phenyl)-amide]	–	10 to 500
Cc1ccc(-n2nc(C(C)(C)C)cc2NC(=O)Nc2ccc(CC3CCN(C(=O)Nc4ccc5c(c4)OCO5)CC3)cc2)cc1 [Compound A429, 4-{4-[3-(5-tert-Butyl-2-p-tolyl-2H-pyrazol-3-yl)-ureido]-benzyl}-piperidine-1-carboxylic acid benzo[1,3]dioxol-5-ylamide]	–	10 to 500
Cc1ccc(-n2nc(C(C)(C)C)cc2NC(=O)Nc2ccc(CC3CCN(C(=O)Nc4ccc(N(C)C)cc4)CC3)cc2)cc1 [Compound A450, 4-{4-[3-(5-tert-Butyl-2-p-tolyl-2H-pyrazol-3-yl)-ureido]-benzyl}-piperidine-1-carboxylic acid (4-dimethylamino-phenyl)-amide]	–	10 to 500
COc1ccc(OC)c(S(=O)(=O)N2CCC(Cc3ccc(NC(=O)Nc4cc(C(C)(C)C)nn4-c4ccc(C)cc4)cc3)CC2)c1 [Compound A564, 1-(5-tert-Butyl-2-p-tolyl-2H-pyrazol-3-yl)-3-{4-[1-(2,5-dimethoxy-benzenesulfonyl)-piperidin-4-ylmethyl]-phenyl}-urea]	–	10 to 500
Cc1ccc(-n2nc(C(C)(C)C)cc2NC(=O)Nc2ccc(CC3CCN(S(=O)(=O)c4ccccc4Cl)CC3)cc2)cc1 [Compound A567, 1-(5-tert-Butyl-2-p-tolyl-2H-pyrazol-3-yl)-3-{4-[1-(2-chloro-benzenesulfonyl)-piperidin-4-ylmethyl]-phenyl}-urea]	–	10 to 500
COc1ccc(C)cc1S(=O)(=O)N1CCC(Cc2ccc(NC(=O)Nc3cc(C(C)(C)C)nn3-c3ccc(C)cc3)cc2)CC1 [Compound A592, 1-(5-tert-Butyl-2-p-tolyl-2H-pyrazol-3-yl)-3-{4-[1-(2-methoxy-5-methyl-benzenesulfonyl)-piperidin-4-ylmethyl]-phenyl}-urea]	–	10 to 500
CCS(=O)(=O)N1CCC(Cc2ccc(NC(=O)Nc3cc(C(C)(C)C)nn3-c3ccc(C)cc3)cc2)CC1 [Compound A606, 1-(5-tert-Butyl-2-p-tolyl-2H-pyrazol-3-yl)-3-[4-(1-ethanesulfonyl-piperidin-4-ylmethyl)-phenyl]-urea]	–	10 to 500
COC(=O)c1ccccc1S(=O)(=O)N1CCC(Cc2ccc(NC(=O)Nc3cc(C(C)(C)C)nn3-c3ccc(C)cc3)cc2)CC1 [Compound A609, 2-(4-{4-[3-(5-tert-Butyl-2-p-tolyl-2H-pyrazol-3-yl)-ureido]-benzyl}-piperidine-1-sulfonyl)-benzoic acid methyl ester]	–	10 to 500
COc1ccc2c(CC(=O)N3C4CCC3CC(Cc3cccc(NC(=O)Nc5cc(C(C)(C)C)nn5-c5ccc(C)cc5)c3)C4)coc2c1 (stereo not drawn) [Compound A618, 1-(5-tert-Butyl-2-p-tolyl-2H-pyrazol-3-yl)-3-(3-{8-[2-(6-methoxy-benzofuran-3-yl)-acetyl]-8-aza-bicyclo[3.2.1]oct-3-ylmethyl}-phenyl)-urea]	–	10 to 500
Cc1ccc(-n2nc(C(C)(C)C)cc2NC(=O)Nc2cccc(CC3CC4CCC(C3)N4C(=O)Cc3cn(C)c4ccccc34)c2)cc1 (stereo not drawn) [Compound A641, 1-(5-tert-Butyl-2-p-tolyl-2H-pyrazol-3-yl)-3-(3-{8-[2-(1-methyl-1H-indol-3-yl)-acetyl]-8-aza-bicyclo[3.2.1]oct-3-ylmethyl}-phenyl)-urea]	–	10 to 500
Cc1ccc(-n2nc(C(C)(C)C)cc2NC(=O)Nc2cccc(CC3CC4CCC(C3)N4C(=O)Cc3ccc(F)c(F)c3)c2)cc1 (stereo not drawn) [Compound A719, 1-(5-tert-Butyl-2-p-tolyl-2H-pyrazol-3-yl)-3-(3-{8-[2-(3,4-difluoro-phenyl)-acetyl]-8-aza-bicyclo[3.2.1]oct-3-ylmethyl}-phenyl)-urea]	–	10 to 500
Cc1ccc(-n2nc(C(C)(C)C)cc2NC(=O)Nc2cccc(CC3CC4CCC(C3)N4C(=O)Cc3ccc(F)cc3F)c2)cc1 (stereo not drawn) [Compound A720, 1-(5-tert-Butyl-2-p-tolyl-2H-pyrazol-3-yl)-3-(3-{8-[2-(2,4-difluoro-phenyl)-acetyl]-8-aza-bicyclo[3.2.1]oct-3-ylmethyl}-phenyl)-urea]	–	10 to 500
Cc1ccc(-n2nc(C(C)(C)C)cc2NC(=O)Nc2cccc(CC3CC4CCC(C3)N4C(=O)Cc3ccccc3F)c2)cc1 (stereo not drawn) [Compound A761, 1-(5-tert-Butyl-2-p-tolyl-2H-pyrazol-3-yl)-3-(3-{8-[2-(2-fluoro-phenyl)-acetyl]-8-aza-bicyclo[3.2.1]oct-3-ylmethyl}-phenyl)-urea]	–	10 to 500
CC(=O)NCC(=O)N1C2CCC1CC(Cc1cccc(NC(=O)Nc3cc(C(C)(C)C)nn3-c3ccc(C)cc3)c1)C2 (stereo not drawn) [Compound A766, N-[2-(3-{3-[3-(5-tert-Butyl-2-p-tolyl-2H-pyrazol-3-yl)-ureido]-benzyl}-8-aza-bicyclo[3.2.1]oct-8-yl)-2-oxo-ethyl]-acetamide]	–	10 to 500
COc1cccc(C(=O)N2C3CCC2CC(Cc2cccc(NC(=O)Nc4cc(C(C)(C)C)nn4-c4ccc(C)cc4)c2)C3)c1OC (stereo not drawn) [Compound A786, 1-(5-tert-Butyl-2-p-tolyl-2H-pyrazol-3-yl)-3-{3-[8-(2,3-dimethoxy-benzoyl)-8-aza-bicyclo[3.2.1]oct-3-ylmethyl]-phenyl}-urea]	–	10 to 500
COc1cccc(CC(=O)N2C3CCC2CC(Cc2ccc(NC(=O)Nc4cc(C(C)(C)C)nn4-c4ccc(C)cc4)cc2)C3)c1OC (stereo not drawn) [Compound A1312, 1-(5-tert-Butyl-2-p-tolyl-2H-pyrazol-3-yl)-3-(4-{8-[2-(2,3-dimethoxy-phenyl)-acetyl]-8-aza-bicyclo[3.2.1]oct-3-ylmethyl}-phenyl)-urea]	–	10 to 500
Cc1ccc(-n2nc(C(C)(C)C)cc2NC(=O)Nc2ccc(CC3CC4CCC(C3)N4C(=O)Cc3ccc(F)cc3F)cc2)cc1 (stereo not drawn) [Compound A1364, 1-(5-tert-Butyl-2-p-tolyl-2H-pyrazol-3-yl)-3-(4-{8-[2-(2,4-difluoro-phenyl)-acetyl]-8-aza-bicyclo[3.2.1]oct-3-ylmethyl}-phenyl)-urea]	–	10 to 500
COc1ccccc1CC(=O)N1C2CCC1CC(Cc1ccc(NC(=O)Nc3cc(C(C)(C)C)nn3-c3ccc(C)cc3)cc1)C2 (stereo not drawn) [Compound A1404, 1-(5-tert-Butyl-2-p-tolyl-2H-pyrazol-3-yl)-3-(4-{8-[2-(2-methoxy-phenyl)-acetyl]-8-aza-bicyclo[3.2.1]oct-3-ylmethyl}-phenyl)-urea]	–	10 to 500
COc1cc(N)c(Cl)cc1C(=O)N1C2CCC1CC(Cc1ccc(NC(=O)Nc3cc(C(C)(C)C)nn3-c3ccc(C)cc3)cc1)C2 (stereo not drawn) [Compound A1441, 1-{4-[8-(4-Amino-5-chloro-2-methoxy-benzoyl)-8-aza-bicyclo[3.2.1]oct-3-ylmethyl]-phenyl}-3-(5-tert-butyl-2-p-tolyl-2H-pyrazol-3-yl)-urea]	–	10 to 500
Cc1ccc(-n2nc(C(C)(C)C)cc2NC(=O)Nc2ccc(CC3CCN(C(=O)C4=Cc5occc5CC4)CC3)cc2)cc1 [Compound A1642, 1-(5-tert-Butyl-2-p-tolyl-2H-pyrazol-3-yl)-3-{4-[1-(4,5-dihydro-benzofuran-6-carbonyl)-piperidin-4-ylmethyl]-phenyl}-urea]	–	10 to 500
COc1ccc(OC)c(CC(=O)N2CCC(Cc3cccc(NC(=O)Nc4cc(C(C)(C)C)nn4-c4ccc(C)cc4)c3)CC2)c1 [Compound A1646, 1-(5-tert-Butyl-2-p-tolyl-2H-pyrazol-3-yl)-3-(3-{1-[2-(2,5-dimethoxy-phenyl)-acetyl]-piperidin-4-ylmethyl}-phenyl)-urea]	–	10 to 500
COc1ccc(OC)c(C(=O)N2C3CCC2CC(Cc2ccc(NC(=O)Nc4cc(C(C)(C)C)nn4-c4ccc(C)cc4)cc2)C3)c1 (stereo not drawn) [Compound A1647, 1-(5-tert-Butyl-2-p-tolyl-2H-pyrazol-3-yl)-3-{4-[8-(2,5-dimethoxy-benzoyl)-8-aza-bicyclo[3.2.1]oct-3-ylmethyl]-phenyl}-urea]	–	10 to 500

Source: patent publication US7541368B2, “Pyrazoles as inhibitors of tumor necrosis factor” (Aventis Pharmaceuticals Inc., priority 2003, dated 2009)
